In US10010492B2, “Methods and compositions for treating skin to resolve inflammation and screening for actives that stimulate pro-resolution pathways” (ELC Management LLC, priority 2015, dated 2018):

What was measured:
[1] = system: Inflammatory Metabolites (PGE2, LTB4) and Inflammatory Metabolite Marker (5-HETE); assay: Inflammatory Metabolites and Inflammatory Metabolite Markers in the aggregate, PMA/A23187-stimulated neutrophils, LC-MS/MS; assay type: cell-based, human; conditions: for net decrease in cellular concentration of Inflammatory Metabolites and Inflammatory Metabolite Markers vs control: human neutrophils pre-treated 24 h, then PMA/A23187
Procedure: (§1) Ingredients were tested to assess the ability to promote Pro-Resolution Pathway Stimulators in human neutrophils. The following Inflammatory Metabolites were measured:
(§2) PGE2 and LTB4. The Inflammatory Metabolite Marker, 5-HETE, was measured. Also measured were the Pro-Resolving Lipid Mediator Markers 15-HETE, 12-HETE, 14-HDOHE, 18-HEPE, and 17-HDOHE. PGE2, LTB4, and 5-HETE are indicators of inflammation. Increases in cellular secretion of PGE2, LTB4, or 5-HETE are seen in response to inflammation precipitating conditions. Active ingredients that cause a reduction in cellular concentration of PGE2, LTB4, or 5-HETE are anti-inflammatory in nature. Cellular secretion of Pro-Resolving Lipid Mediators occurs in the inflammation resolution phase. Active ingredients that stimulate cellular secretion of Pro-Resolving Lipid Mediators (as measured by measuring Pro-Resolving Lipid Mediator Markers) help to promote resolution of inflammation.
(§3) Then, the inflammatory response was initiated by adding an inflammation precipitating ingredient, in particular PMA/[…] which is a mixture of 5-(methylamino)-2-({(2R,3R,6S,8S,9R,11R)-3,9,11-trimethyl-8-[(1S)-1-methyl-2-oxo-2-(1H-pyrrol-2-yl)ethyl]-1,7-dioxaspiro[5.5]undec-2-yl}methyl)-1,3-benzoxazole-4-carboxylic acid and PMA (phorbol myristate acetate), at a concentration of 0.05 μm and 1 μm respectively to each well. After one hour the supernatants were collected and stored at −80° C. until assayed.
(§4) Cell supernatants were assayed for Inflammatory Metabolites (PGE2, LBT4), Inflammatory Metabolite Markers (5-HETE), and Pro-Resolving Lipid Mediator Markers 15-HETE, 12-HETE, 14-HDOHE, 18-HEPE, and 17-HDOHE. More specifically, analysis was performed by extraction using an Oasis HLB 96-well plate (Waters) according to manufacturer's directions.
(§5) Suitable Pro-Resolving Activators are ingredients that show an increase in cellular concentration of Pro-Resolving Lipid Mediator Markers 15-HETE, 12-HETE, 14-HDOHE, 18-HEPE, and 17-HDOHE alone or in combination, when cells exposed to an inflammation precipitating condition either before or after exposure to the active.

[2] = system: Pro-Resolving Lipid Mediator Markers 15-HETE, 12-HETE, 14-HDOHE, 18-HEPE, and 17-HDOHE; assay: Pro-Resolving Lipid Mediator Markers in the aggregate, PMA/A23187-stimulated neutrophils, LC-MS/MS; assay type: cell-based, human
Procedure: as §1, §2, §3, §4, §5

Compound: Oc1ccc(C=Cc2cc(O)cc(O)c2)cc1 [resveratrol]
- decrease in Inflammatory Metabolites and Markers in the aggregate vs control ([1]; 0.1 ug/ml): 45%
- decrease in Inflammatory Metabolites and Markers in the aggregate vs control ([1]; 1 ug/ml): 59%
- decrease in Inflammatory Metabolites and Markers in the aggregate vs control ([1]; 10 ug/ml): 106%
- % change of Pro-Resolving Lipid Mediator Markers in the aggregate compared to control ([2]; 0.1 ug/ml): −27%
- % change of Pro-Resolving Lipid Mediator Markers in the aggregate compared to control ([2]; 1 ug/ml): −16%
- % change of Pro-Resolving Lipid Mediator Markers in the aggregate compared to control ([2]; 10 ug/ml): −10%

Compound: O=C(O)c1ccccc1O [salicylic acid]
- net decrease in cellular concentration of Inflammatory Metabolites and Inflammatory Metabolite Markers vs control ([1]; 0.33 μg/ml, aggregate of PGE2, LTB4, 5-HETE): 29%
- net decrease in cellular concentration of Inflammatory Metabolites and Inflammatory Metabolite Markers vs control ([1]; 3.3 μg/ml, aggregate): 58%
- net decrease in cellular concentration of Inflammatory Metabolites and Inflammatory Metabolite Markers vs control ([1]; 33 μg/ml, aggregate): 46%
- change in cellular concentration of Pro-Resolving Lipid Mediators vs control ([2]; 0.33 ug/ml): small increase
- change in cellular concentration of all Pro-Resolving Lipid Mediator Markers in the aggregate vs control ([2]; 3.3 μg/ml): decreased
- change in cellular concentration of all Pro-Resolving Lipid Mediator Markers in the aggregate vs control ([2]; 33 μg/ml): decreased

Compound: resveratrol salicylate
- decrease in Inflammatory Metabolites and Inflammation Metabolite Markers in the aggregate vs control ([1]; 0.43 ug/ml): 87%
- decrease in Inflammatory Metabolites and Inflammation Metabolite Markers in the aggregate vs control ([1]; 4.3 ug/ml): 163%
- decrease in Inflammatory Metabolites and Inflammation Metabolite Markers in the aggregate vs control ([1]; 43 ug/ml): 257%
- increase in cellular concentration of Pro-Resolving Lipid Mediator Markers in the aggregate ([2]; 0.43 ug/ml): not being as effective
- increase in cellular concentration of Pro-Resolving Lipid Mediator Markers in the aggregate ([2]; 4.3 ug/ml): 4%
- increase in cellular concentration of Pro-Resolving Lipid Mediator Markers in the aggregate ([2]; 43 ug/ml): 37%
